Each structure is given as a SMILES string. Calls of active or inactive are those of the source. No cut-off for these calls is given here.

The subject of one test is Escherichia coli. Nature of the test: Antibacterial activity against Escherichia coli assessed as bacterial growth inhibition after 24 hrs by broth dilution method. In kind it is functional, organism-based.
The test system of test [1] is Staphylococcus aureus. Nature of the test: Antibacterial activity against vancomycin-intermediate/methicillin-resistant Staphylococcus aureus NRS402 assessed as bacterial growth inhibition after 24 hrs by broth dilution method. The test is classed as functional. The following applies: NRS402, 24 h.
The test system of a further test is Pseudomonas aeruginosa. The test is described as follows: Antibacterial activity against Pseudomonas aeruginosa assessed as bacterial growth inhibition after 24 hrs by broth dilution method. The test is classed as functional, organism-based.
For test [2], the system named is Staphylococcus aureus. The test is described as follows: Antibacterial activity against vancomycin/methicillin-sensitive Staphylococcus aureus ATCC 25923 assessed as bacterial growth inhibition after 24 hrs by broth dilution method. The test is classed as functional. The conditions noted are these: ATCC 25923, 24 h.

Take `CCCCCCCCCCCC1=C(O)C(=O)C2=C(OC(C)(C)[C@H]3CC[C@H](C)C[C@H]23)C1=O`: the outcome in the test with Escherichia coli and in the test with Pseudomonas aeruginosa was inactive. Moreover, the MIC in the test with Staphylococcus aureus [1] amounted to 1 µM; in the test with Staphylococcus aureus [2], 8 µM.

For the compound `CCCCCCCCCCCC1=C(O)C(=O)C([C@H]2[C@H](C)CC[C@@H]2C(C)(C)OCC)=C(O)C1=O` (racemic), the result with Escherichia coli and with Pseudomonas aeruginosa was inactive. The MIC in the test with Staphylococcus aureus [1] and with Staphylococcus aureus [2] was above 128 µM each time.

For the compound `CCCCCCCCCCCC1=C(O)C(=O)C2=C(OC(C)(C)[C@H]3CC[C@@H](C)[C@H]23)C1=O` (racemic), the result with Escherichia coli and in the test with Pseudomonas aeruginosa was inactive. For the same compound, the MIC with Staphylococcus aureus [1] stood at 4 µM; with Staphylococcus aureus [2], 64 µM.

In the case of `CCCCCCCCCCCC1=C(O)C(=O)C2=C(OC(C)(C)[C@@H]3COc4ccc5ccccc5c4[C@H]23)C1=O` (racemic), the outcome with Escherichia coli and with Pseudomonas aeruginosa was inactive. In addition, the MIC in the test on Staphylococcus aureus [1] and in the test with Staphylococcus aureus [2] was above 128 µM throughout.

Consider `CCCCCCCCCCCC1=C(O)C(=O)C2=C(OC(C)(C)[C@H]3COc4ccc(OCC=C(C)C)cc4[C@H]23)C1=O` (relative stereo), for which the outcome with Escherichia coli and in the test on Pseudomonas aeruginosa was inactive. Moreover, the minimum inhibitory concentration (MIC) in the test on Staphylococcus aureus [1] and in the test on Staphylococcus aureus [2] was above 128 µM each time.

With `CCCCCCCCCCCC1=C(O)C(=O)C2=C(OC(C)(C)[C@H]3COc4cc(OC)ccc4[C@H]23)C1=O` (relative stereo), the outcome in the test on Escherichia coli and with Pseudomonas aeruginosa was inactive. Moreover, the minimal inhibitory concentration (MIC) was 4 µM in the test with Staphylococcus aureus [1] and 64 µM with Staphylococcus aureus [2].

In the case of `CCCCCCCCCCCC1=C(O)C(=O)C2=C(OC(C)(C)[C@@H]3COc4cc(OC)ccc4[C@H]23)C1=O` (relative stereo), the outcome in the test with Escherichia coli and in the test with Pseudomonas aeruginosa was inactive. Moreover, the MIC with Staphylococcus aureus [1] was determined as 1 µM; with Staphylococcus aureus [2], 8 µM.

In the case of `CCCCCCCCCCCC1=C(O)C(=O)C2=C(OC(C)(C)[C@@H]3COc4ccc(Br)cc4[C@H]23)C1=O` (relative stereo), the outcome with Escherichia coli and with Pseudomonas aeruginosa was inactive. Further, the figures for the MIC in the test with Staphylococcus aureus [1] and in the test with Staphylococcus aureus [2] were 32 µM and 16 µM, respectively.

As for `CCCCCCCCCCCC1=C(O)C(=O)C2=C(OC(C)(C)[C@H]3COc4ccc(Br)cc4[C@H]23)C1=O` (relative stereo), the result in the test with Escherichia coli and in the test on Pseudomonas aeruginosa was inactive. The minimal inhibitory concentration (MIC) with Staphylococcus aureus [1] was determined as 32 µM; in the test with Staphylococcus aureus [2], 16 µM.

For the compound `CCCCCCCCCCCC1=C(O)C(=O)C2=C(OC(C)(C)[C@H]3COc4ccc(Cl)cc4[C@H]23)C1=O` (relative stereo), the outcome with Escherichia coli and with Pseudomonas aeruginosa was inactive. Moreover, the MIC in the test with Staphylococcus aureus [1] stood at 2 µM; in the test with Staphylococcus aureus [2], 4 µM.

On to `CCCCCCCCCCCC1=C(O)C(=O)C2=C(OC(C)(C)[C@@H]3COc4ccc(OCC=C(C)C)cc4[C@H]23)C1=O` (relative stereo), for which the outcome with Escherichia coli and in the test on Pseudomonas aeruginosa was inactive. In addition, the minimum inhibitory concentration (MIC) with Staphylococcus aureus [1] and in the test on Staphylococcus aureus [2] was above 128 µM in each case.

Turning to `CCCCCCCCCCCC1=C(O)C(=O)C2=C(OC(C)(C)[C@@H]3COc4ccc(Cl)cc4[C@H]23)C1=O` (relative stereo), the result in the test on Escherichia coli and in the test with Pseudomonas aeruginosa was inactive. In addition, the MIC in the test with Staphylococcus aureus [1] is 1 µM; in the test with Staphylococcus aureus [2], 4 µM.

With `CCCCCCCCCCCC1=C(O)C(=O)C=C(O)C1=O` [EMBELIN], the outcome in the test with Escherichia coli and in the test on Pseudomonas aeruginosa was inactive. The results for the MIC in the test with Staphylococcus aureus [1] and in the test with Staphylococcus aureus [2] were 16 µM and 32 µM, respectively.

`C/C(=C\C(=O)OCCCCCCCCC(=O)O)C[C@@H]1OC[C@H](C[C@@H]2O[C@H]2[C@@H](C)[C@H](C)O)[C@@H](O)[C@H]1O` [MUPIROCIN]: the MIC in the test with Staphylococcus aureus [1] and in the test with Staphylococcus aureus [2] was below 1 µg/mL each time.

As for `Cc1onc(-c2ccccc2)c1C(=O)N[C@@H]1C(=O)N2[C@@H]1SC(C)(C)[C@@H]2C(=O)O` [OXACILLIN], the results for the minimal inhibitory concentration (MIC) in the test on Staphylococcus aureus [1] and in the test with Staphylococcus aureus [2] were above 128 µg/mL and below 1 µg/mL, respectively.

On to `CN[C@H](CC(C)C)C(=O)N[C@H]1C(=O)N[C@@H](CC(N)=O)C(=O)N[C@H]2C(=O)N[C@H]3C(=O)N[C@H](C(=O)N[C@H](C(=O)O)c4cc(O)cc(O)c4-c4cc3ccc4O)[C@H](O)c3ccc(c(Cl)c3)Oc3cc2cc(c3O[C@@H]2O[C@H](CO)[C@@H](O)[C@H](O)[C@H]2O[C@H]2C[C@](C)(N)[C@H](O)[C@H](C)O2)Oc2ccc(cc2Cl)[C@H]1O` [VANCOMYCIN], for which the minimum inhibitory concentration (MIC) in the test on Staphylococcus aureus [2] was below 1 µg/mL.

These data come from ChEMBL document CHEMBL4477164, “Domino Synthesis of Embelin Derivatives with Antibacterial Activity” (2016).
